Values joined by “and” are separate entries in the source; they are usually repeats but may differ in a detail not shown here. Equal values may be shown once. Read-outs that look alike come from different tables or passages of the source.
Legend:
porcine pepsin = target: T1, porcine pepsin (Sus scrofa, UniProt P00791); assay: Peptide stability in simulated gastric fluid (SGF); format: in vitro ADME
T1 construct: 0.32 g of porcine pepsin (Sigma-Aldrich, P7125) was dissolved under gentle agitation; purchased Sigma-Aldrich P7125
In short: (§1)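 Peptide from a 1 mM DMSO stock was added to fluid pre-warmed at 37 °C. SGF was pH 1.2 NaCl with porcine pepsin (0.32 g per 100 ml), and SIF was pH 6.8 potassium phosphate with porcine pancreatin (1 g per 100 ml). Supernatant peptide was quantified by LC–MS, with residual expressed as T1/T0.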

[1] = Peptide stability in simulated intestinal fluid (SIF); format: in vitro ADME, porcine; conditions: simulated gi fluid; 8 h, 37 °C, pH 6.8; read-out: Proteolytic stability: SIF (8 h) % remaining
In short: as §1

porcine pancreatin = assay: as above; format: in vitro ADME; conditions: after 8 h vs 0 h (TIC)
In short: as §1

rat α-thrombin = target: T2, rat α-thrombin (Rattus norvegicus, UniProt P18292); assay: Protease inhibition, Ki for rat α-thrombin (fluorogenic substrate Z-Gly-Gly-Arg-AMC); format: biochemical; conditions: for Slope normalized to DMSO (proteolytic substrate cleavage over time): replicates R1-R3
T2 construct: rat α-thrombin (Molecular Innovations) were used at final concentrations of 2 nM and 3 nM; purchased Molecular Innovations
In short: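 Ki values come from Cheng–Prusoff correction of IC50, itself fitted by four-parameter logistic regression of activity versus a no-peptide control. Assays used 2 nM human or 3 nM rat thrombin, 50 μM Z-Gly-Gly-Arg-AMC, 30 min kinetic fluorescence at 25 °C.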

[2] = Metabolic stability in rat liver microsomes (RLMs); conditions: for TIC value of compound, metabolic stability RLM: replicates R1-R3; for microsomal CLint / half-life: rat

T1 sequence (P00791 60-385): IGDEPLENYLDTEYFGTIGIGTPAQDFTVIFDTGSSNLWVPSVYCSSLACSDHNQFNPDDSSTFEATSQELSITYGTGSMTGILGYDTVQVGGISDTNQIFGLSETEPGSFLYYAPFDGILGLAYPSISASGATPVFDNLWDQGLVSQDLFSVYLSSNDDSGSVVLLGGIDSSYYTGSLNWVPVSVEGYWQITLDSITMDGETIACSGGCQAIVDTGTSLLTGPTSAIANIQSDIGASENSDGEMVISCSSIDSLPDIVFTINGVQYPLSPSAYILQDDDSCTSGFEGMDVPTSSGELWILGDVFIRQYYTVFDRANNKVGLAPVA

O=C1C[C@H]2CCCN2C(=O)[C@H](Cc2ccccc2)NC(=O)[C@@H](NC(=O)c2ccc(Cl)s2)CSC/C=C/CSCCN1 [peptide 32]
SGF stability, Residual peptide Average (porcine pepsin; after 8 h vs 0 h (TIC), average of R1-R3): 106.85
SGF stability, Residual peptide (porcine pepsin; after 8 h vs 0 h (TIC), single replicates R1-R3): 117.40 and 115.58 and 87.56
remaining at 8 h (porcine pepsin; simulated gi fluid, 8 h, 37 °C, pH 1.2, read-out: Proteolytic stability: SGF (8 h) % remaining): 107 ± 17%
remaining at 8 h [1]: 82 ± 10%
SIF stability, Residual peptide Average (porcine pancreatin; average of R1-R3): 82.44
SIF stability, Residual peptide (porcine pancreatin; single replicates R1-R3): 91.81 and 71.29 and 84.22
Ki (rat α-thrombin; purified peptide, mean and s.d. of three measurements, read-out: Ki rat α-thrombin): 1.1 ± 0.41 nM
Slope normalized to DMSO (proteolytic substrate cleavage over time) (rat α-thrombin; rat alpha thrombin, peptide 1.02E-03 uM): 71.6 and 67.2 and 58.0
Slope normalized to DMSO (proteolytic substrate cleavage over time) (rat α-thrombin; rat alpha thrombin, peptide 1.04E+00 uM): 6.5 and 8.7 and 6.4
Slope normalized to DMSO (proteolytic substrate cleavage over time) (rat α-thrombin; rat alpha thrombin, peptide 1.27E-04 uM): 89.6 and 85.7 and 79.9
Slope normalized to DMSO (proteolytic substrate cleavage over time) (rat α-thrombin; rat alpha thrombin, peptide 1.30E-01 uM): 12.8 and 13.3 and 8.9
Slope normalized to DMSO (proteolytic substrate cleavage over time) (rat α-thrombin; rat alpha thrombin, peptide 1.59E-05 uM): 102.5 and 122.8 and 94.2
Slope normalized to DMSO (proteolytic substrate cleavage over time) (rat α-thrombin; rat alpha thrombin, peptide 1.63E-02 uM): 35.3 and 31.4 and 27.2
Slope normalized to DMSO (proteolytic substrate cleavage over time) (rat α-thrombin; rat alpha thrombin, peptide 1.67E+01 uM): 4.8 and 5.1 and 4.2
Slope normalized to DMSO (proteolytic substrate cleavage over time) (rat α-thrombin; rat alpha thrombin, peptide 2.03E-03 uM): 56.5 and 52.5 and 45.1
Slope normalized to DMSO (proteolytic substrate cleavage over time) (rat α-thrombin; rat alpha thrombin, peptide 2.08E+00 uM): 5.0 and 7.7 and 6.7
Slope normalized to DMSO (proteolytic substrate cleavage over time) (rat α-thrombin; rat alpha thrombin, peptide 2.54E-04 uM): 83.1 and 80.0 and 103.6
Slope normalized to DMSO (proteolytic substrate cleavage over time) (rat α-thrombin; rat alpha thrombin, peptide 2.60E-01 uM): 12.7 and 11.2 and 6.9
Slope normalized to DMSO (proteolytic substrate cleavage over time) (rat α-thrombin; rat alpha thrombin, peptide 3.18E-05 uM): 95.8 and 95.0 and 90.9
Slope normalized to DMSO (proteolytic substrate cleavage over time) (rat α-thrombin; rat alpha thrombin, peptide 3.26E-02 uM): 29.1 and 26.7 and 19.1
Slope normalized to DMSO (proteolytic substrate cleavage over time) (rat α-thrombin; rat alpha thrombin, peptide 3.33E+01 uM): 5.0 and 6.0 and 4.0
Slope normalized to DMSO (proteolytic substrate cleavage over time) (rat α-thrombin; rat alpha thrombin, peptide 4.07E-03 uM): 51.9 and 49.0 and 39.9
Slope normalized to DMSO (proteolytic substrate cleavage over time) (rat α-thrombin; rat alpha thrombin, peptide 4.17E+00 uM): 5.5 and 6.1 and 4.2
Slope normalized to DMSO (proteolytic substrate cleavage over time) (rat α-thrombin; rat alpha thrombin, peptide 5.09E-04 uM): 76.1 and 71.5 and 67.7
Slope normalized to DMSO (proteolytic substrate cleavage over time) (rat α-thrombin; rat alpha thrombin, peptide 5.21E-01 uM): 9.5 and 9.3 and 6.7
Slope normalized to DMSO (proteolytic substrate cleavage over time) (rat α-thrombin; rat alpha thrombin, peptide 6.36E-05 uM): 93.9 and 94.0 and 87.7
Slope normalized to DMSO (proteolytic substrate cleavage over time) (rat α-thrombin; rat alpha thrombin, peptide 6.51E-02 uM): 18.8 and 16.8 and 12.8
Slope normalized to DMSO (proteolytic substrate cleavage over time) (rat α-thrombin; rat alpha thrombin, peptide 6.67E+01 uM): 5.5 and 6.5 and 3.1
Slope normalized to DMSO (proteolytic substrate cleavage over time) (rat α-thrombin; rat alpha thrombin, peptide 7.95E-06 uM): 102.1 and 101.6 and 99.0
Slope normalized to DMSO (proteolytic substrate cleavage over time) (rat α-thrombin; rat alpha thrombin, peptide 8.14E-03 uM): 40.8 and 35.1 and 27.1
Slope normalized to DMSO (proteolytic substrate cleavage over time) (rat α-thrombin; rat alpha thrombin, peptide 8.33E+00 uM): 4.4 and 7.1 and 3.1
IC50 (rat α-thrombin; rat alpha thrombin, single replicates R1-R3, read-out: IC50, rat alpha thrombin inhibition): 2.94 nM and 1.12 nM and 1.9 nM
Ki (rat α-thrombin; rat alpha thrombin, single replicates R1-R3, read-out: Ki, rat alpha thrombin inhibition): 1.63 nM (2×) and 0.618 nM (2×) and 1.05 nM
TIC value of compound, metabolic stability RLM ([2]; 0 min): 4102350 (2×) and 4260631
TIC value of compound, metabolic stability RLM ([2]; 5 min): 2223511 and 2018425 and 2686035
TIC value of compound, metabolic stability RLM ([2]; 15 min): 283425 and 185564 and 435364
TIC value of compound, metabolic stability RLM ([2]; 30 min): 0 (2×) and 35161
TIC value of compound, metabolic stability RLM ([2]; 60 min): 0
TIC value of compound, 0 min, R1 ([2]; rat liver microsomes, 0 min, replicate R1): 4102350
TIC value of compound, 0 min, R3 ([2]; rat liver microsomes, 0 min, replicate R3): 4260631
TIC value of compound, 5 min, R1 ([2]; rat liver microsomes, 5 min, replicate R1): 2223511
TIC value of compound, 5 min, R3 ([2]; rat liver microsomes, 5 min, replicate R3): 2686035
TIC value of compound, 15 min, R1 ([2]; rat liver microsomes, 15 min, replicate R1): 283425
TIC value of compound, 15 min, R3 ([2]; rat liver microsomes, 15 min, replicate R3): 435364
TIC value of compound, 30 min, R1 ([2]; rat liver microsomes, 30 min, replicate R1): 0
TIC value of compound, 30 min, R3 ([2]; rat liver microsomes, 30 min, replicate R3): 35161
TIC value of compound, 60 min, R1 ([2]; rat liver microsomes, 60 min, replicate R1): 0
TIC value of compound, 60 min, R3 ([2]; rat liver microsomes, 60 min, replicate R3): 0
microsomal CLint ([2]; CL (ul/min/mg protein), R1, RLM CL, replicate R1, unrounded): 278 µL/min/mg
microsomal CLint ([2]; CL (ul/min/mg protein), R2, RLM CL, replicate R2, unrounded): 276 µL/min/mg
microsomal CLint ([2]; CL (ul/min/mg protein), R3, RLM CL, replicate R3, unrounded): 234 µL/min/mg
half-life ([2]; Half Life (min) in RLMs (single replicates R1–R3), Fig. 5e source data): 4.98 min
half-life ([2]; Half Life (min), R1, RLM metabolic stability, replicate R1): 4.98 min
half-life ([2]; Half Life (min), R2, RLM metabolic stability, replicate R2): 5.02 min
half-life ([2]; Half Life (min), R3, RLM metabolic stability, replicate R3): 5.93 min
microsomal CLint ([2]; microsomes, Clearance (CL) in RLMs, calculated from half-life, mean and s.d. of three measurements): 260 ± 20 µL/min/mg
half-life ([2]; microsomes, Half Life, RLM, individual replicates R1-R3): 4.98 min
half-life ([2]; microsomes, Metabolic stability: Half life T1/2 (min), RLMs, mean and SD, three measurements): 5.3 ± 0.4 min
microsomal CLint ([2]; microsomes, RLM CL, Average, average of R1-R3): 263 µL/min/mg
microsomal CLint ([2]; microsomes, RLM CL, R1, RLM CL, replicate R1, summary block): 278 µL/min/mg
microsomal CLint ([2]; microsomes, RLM CL, R2, RLM CL, replicate R2, summary block): 276 µL/min/mg
microsomal CLint ([2]; microsomes, RLM CL, R3, RLM CL, replicate R3, summary block): 234 µL/min/mg
